Among the data in the NIST ThermoML archive (doi:10.1016/j.jct.2007.06.020) are molar enthalpy values, retold here.

Numbers after ± are expanded uncertainties.

The nature of the data set: molar enthalpy of vaporization or sublimation. As to conditions: 298.15 K; Liquid; Calvet microcalorimetry.

In the case of `N#Cc1cccs1` [2-cyanothiophene], the molar enthalpy is 11.8 ± 0.526 kcal/mol.
The result for `N#CCc1ccsc1` [3-thiopheneacetonitrile] reads 14.6 ± 0.621 kcal/mol.
The result for `N#CCc1cccs1` [2-thiopheneacetonitrile] reads 14.5 ± 0.621 kcal/mol; that for `N#Cc1ccsc1` [3-thiophenecarbonitrile], 12.3 ± 0.908 kcal/mol.
The result for `Cc1ccsc1C#N` [3-methylthiophene-2-carbonitrile] reads 13 ± 0.574 kcal/mol.
